For nine compounds, GI50 and TGI results are on record in PubChem BioAssay (NCI).

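Test compounds were applied to cells in 96-well plates for 48 hours at 5 doses. GI50: concentration for 50% inhibition of growth. TGI marks complete inhibition of growth.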

Common to all, as to assay: inhibition of tumour cell growth, NCI panel, 48 h
The subject of assay [1] is CCRF-CEM leukemia.
The subject of assay [2] is HCT-15 colon.
For assay [3], the system named is HL-60(TB) leukemia.
Assay [4] concerns KM12 colon.
For assay [5], the system named is NCI-H23 lung.
Assay [6] relates to NCI-H522 lung.
Assay [7] deals with OVCAR-4 ovarian.
Assay [8] relates to SF-539 CNS.

Take `O=C(Cc1ccccc1)Nc1nnc(CCSCCc2nnc(NC(=O)Cc3ccccc3)s2)s1`: the GI50 is over 100 µM in assay [1]; over 100 µM in assay [2]; 4.26 µM in assay [3]; 4.61 µM in assay [4]; 28.8 µM in assay [5]; 8.41 µM in assay [6]. The values for the GI50 in assay [7] and in assay [8] were 3.96 µM and 22.8 µM, respectively. For the same compound, the TGI is over 100 µM in assay [1]; over 100 µM in assay [2]; 65.4 µM in assay [3]; over 100 µM in assay [4]; over 100 µM in assay [5]; over 100 µM in assay [6]. In addition, the values for the TGI in assay [7] and in assay [8] were 32.7 µM and over 100 µM, respectively.

As to `c1ccc(Cn2cc3c(c2)-c2oncc2CC3)cc1`, the GI50 was 0.348 µM in assay [1]; 0.863 µM in assay [2]; 0.274 µM in assay [3]; 0.521 µM in assay [4]; 1.77 µM in assay [5]; 1.89 µM in assay [6]. Also, the values for the GI50 in assay [7] and in assay [8] were 3.26 µM and 0.461 µM, respectively. Also, the TGI was over 100 µM in assay [2]; 0.939 µM in assay [3]; 9.2 µM in assay [4]; over 100 µM in assay [5]; 8.13 µM in assay [6]; over 66.9 µM in assay [7]. The compound also gave a TGI in assay [8] of 2.9 µM.

For the compound `NC(=O)Nc1ccc2ncnc(Nc3ccc(Cl)cc3)c2c1`, the GI50 in assay [1] was 20.3 µM; in assay [2], 20.1 µM; in assay [3] it was 25.9 µM; in assay [4], 33.4 µM; in assay [5], 21.6 µM; in assay [6], 6.08 µM. In addition, the GI50 in assay [7] is 11.8 µM; in assay [8] it was 30.7 µM. For the same compound, the TGI is over 100 µM in assay [1]; over 100 µM in assay [2]; 64.4 µM in assay [3]; over 100 µM in assay [4]; 69 µM in assay [5]; 36 µM in assay [6]. For the same compound, the TGI in assay [7] and in assay [8] was over 100 µM in each case.

As for `Cc1cc(-c2ccccc2)c(C)n1Cc1ccc(Cl)cc1`, the GI50 in assay [1] was 3.46 µM; in assay [2], 2.86 µM; in assay [3] it was 4.3 µM; in assay [4], 4.26 µM; in assay [5], 8.24 µM; in assay [6], 2.57 µM. For the same compound, the results for the GI50 in assay [7] and in assay [8] were 9.56 µM and 2.8 µM, respectively. Moreover, the TGI in assay [1] is over 100 µM; in assay [2], over 100 µM; in assay [3], 55.8 µM; in assay [4], over 100 µM; in assay [5], over 100 µM; in assay [6], 9.26 µM. The TGI in assay [7] is over 100 µM; in assay [8] it was 12.1 µM.

For `Clc1ccccc1-c1nc2ccccc2[nH]1`, the GI50 in assay [1] was over 100 µM; in assay [2], over 100 µM; in assay [3] it was over 100 µM; in assay [4], 85.2 µM; in assay [5], over 100 µM; in assay [6] it was over 100 µM. The GI50 in assay [7] and in assay [8] was over 100 µM in each case. In addition, the TGI in assay [1], in assay [2], in assay [3], in assay [4], in assay [5] and in assay [6] was over 100 µM each time. In addition, the TGI in assay [7] and in assay [8] was over 100 µM each time.

Regarding `O=C(CCCn1ccnc1[N+](=O)[O-])NCCn1cnc([N+](=O)[O-])c1`, the TGI in assay [1], in assay [2], in assay [3], in assay [4], in assay [5] and in assay [6] was over 100 µM each time. The TGI in assay [7] and in assay [8] was over 100 µM in each case.

Consider `COc1cc(C(=O)/C=C/c2c(-c3ccc(F)cc3)nc3sccn23)cc(OC)c1OC`, for which the GI50 in assay [1] was 2.68 µM; in assay [2] it was 2.87 µM; in assay [3], 1.61 µM; in assay [4], 2.24 µM; in assay [5], 2.43 µM; in assay [6] it was 4.2 µM. For the same compound, the figures for the GI50 in assay [7] and in assay [8] were 3.27 µM and 1.59 µM, respectively. Also, the TGI is over 27.3 µM in assay [1]; 13.1 µM in assay [2]; 4.19 µM in assay [3]; 6.27 µM in assay [4]; 10.6 µM in assay [5]; over 26.2 µM in assay [6]. The TGI is 38.1 µM in assay [7] and 3.62 µM in assay [8].

Regarding `Cc1ccc(C(=O)Nc2ccc(CN3CCN(C)CC3)c(C(F)(F)F)c2)cc1C#Cc1cncc2ncccc12`, the GI50 in assay [1] was 0.902 µM; in assay [2], 0.318 µM; in assay [3], 0.282 µM; in assay [4], 0.338 µM; in assay [5], 0.894 µM; in assay [6], 0.323 µM. Also, the GI50 is 0.289 µM in assay [7] and 0.42 µM in assay [8]. For the same compound, the TGI in assay [1] is 3.61 µM; in assay [2], 1.28 µM; in assay [3], 1.61 µM; in assay [4], 4.49 µM; in assay [5], 15.1 µM; in assay [6] it was 15.6 µM. Also, the TGI in assay [7] came out at 4.75 µM; in assay [8], 1.55 µM.

For the compound `CC(=O)OCCC/C(=C\c1ccc2ccccc2c1)[N+](=O)[O-]`, the GI50 was 2.19 µM in assay [1]; 1.61 µM in assay [2]; over 100 µM in assay [3]; 1.59 µM in assay [4]; 1.79 µM in assay [5]; 0.353 µM in assay [6]. Besides, the GI50 in assay [7] and in assay [8] was 1.76 µM in each case. For the same compound, the TGI was 7.88 µM in assay [1]; 3.42 µM in assay [2]; over 100 µM in assay [3]; 3.18 µM in assay [4]; 4.65 µM in assay [5]; 1.77 µM in assay [6]. The TGI in assay [7] was determined as 3.39 µM; in assay [8], 3.32 µM.
